Measurements taken from PubChem BioAssay (NCI).
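Cultured in 96-well plates, cells were exposed to test compound for 48 hours across five concentrations. TGI marks complete inhibition of growth.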

What was measured:
Test in all cases: NCI-60 cell line screen, 48 h
786-0 renal = tested on: 786-0 renal
A498 renal = tested on: A498 renal
A549 NSCLC = tested on: A549 NSCLC
ACHN renal = tested on: ACHN renal
BT-549 breast = tested on: BT-549 breast
CAKI-1 renal = tested on: CAKI-1 renal
CCRF-CEM leukemia = tested on: CCRF-CEM leukemia
COLO 205 colon = tested on: COLO 205 colon
DU-145 prostate = tested on: DU-145 prostate
EKVX NSCLC = tested on: EKVX NSCLC
HCC-2998 colon = tested on: HCC-2998 colon
HCT-116 colon = tested on: HCT-116 colon
HCT-15 colon = tested on: HCT-15 colon
HL-60(TB) leukemia = tested on: HL-60(TB) leukemia
HOP-62 NSCLC = tested on: HOP-62 NSCLC
HOP-92 NSCLC = tested on: HOP-92 NSCLC
HS 578T breast = tested on: HS 578T breast
HT29 colon = tested on: HT29 colon
IGROV1 ovarian = tested on: IGROV1 ovarian
K-562 leukemia = tested on: K-562 leukemia
KM12 colon = tested on: KM12 colon
LOX IMVI melanoma = tested on: LOX IMVI melanoma
M14 melanoma = tested on: M14 melanoma
MALME-3M melanoma = tested on: MALME-3M melanoma
MCF7 breast = tested on: MCF7 breast
MDA-MB-231 breast = tested on: MDA-MB-231 breast
MDA-MB-435 = tested on: MDA-MB-435
MDA-N = tested on: MDA-N
MOLT-4 leukemia = tested on: MOLT-4 leukemia
NCI-H23 lung = tested on: NCI-H23 lung
NCI-H460 lung = tested on: NCI-H460 lung
NCI-H522 lung = tested on: NCI-H522 lung
NCI/ADR-RES ovarian = tested on: NCI/ADR-RES ovarian
OVCAR-3 ovarian = tested on: OVCAR-3 ovarian
OVCAR-4 ovarian = tested on: OVCAR-4 ovarian
OVCAR-5 ovarian = tested on: OVCAR-5 ovarian
OVCAR-8 ovarian = tested on: OVCAR-8 ovarian
PC-3 prostate = tested on: PC-3 prostate
RPMI-8226 leukemia = tested on: RPMI-8226 leukemia
RXF 393 renal = tested on: RXF 393 renal
SF-268 CNS = tested on: SF-268 CNS
SF-295 CNS = tested on: SF-295 CNS
SF-539 CNS = tested on: SF-539 CNS
SK-MEL-2 melanoma = tested on: SK-MEL-2 melanoma
SK-MEL-28 melanoma = tested on: SK-MEL-28 melanoma
SK-MEL-5 melanoma = tested on: SK-MEL-5 melanoma
SK-OV-3 ovarian = tested on: SK-OV-3 ovarian
SN12C renal = tested on: SN12C renal
SNB-19 CNS = tested on: SNB-19 CNS
SNB-75 CNS = tested on: SNB-75 CNS
SW-620 colon = tested on: SW-620 colon
T-47D breast = tested on: T-47D breast
TK-10 renal = tested on: TK-10 renal
U251 CNS = tested on: U251 CNS
UACC-257 melanoma = tested on: UACC-257 melanoma
UACC-62 melanoma = tested on: UACC-62 melanoma
UO-31 renal = tested on: UO-31 renal

O=C1/C(=C\c2cccc(Oc3ccccc3)c2)SC(c2ccccc2)N1c1cc(Cl)ccc1Cl (configuration not stated) was tested, and the TGI (786-0 renal) was 76.5 µM, the TGI (A498 renal) was greater than 100 µM and the TGI (A549 NSCLC) was greater than 100 µM. The TGI (ACHN renal) was greater than 100 µM, the TGI (BT-549 breast) was greater than 100 µM and the TGI (CAKI-1 renal) was greater than 100 µM. For the same compound, the TGI (CCRF-CEM leukemia) was 3.62 µM, the TGI (COLO 205 colon) was greater than 100 µM and the TGI (DU-145 prostate) was greater than 100 µM. It also gave a TGI (EKVX NSCLC) greater than 100 µM, a TGI (HCC-2998 colon) greater than 100 µM and a TGI (HCT-116 colon) of 52.7 µM. The TGI (HCT-15 colon) was greater than 100 µM, the TGI (HL-60(TB) leukemia) was 48.1 µM and the TGI (HOP-62 NSCLC) was greater than 100 µM. For the same compound, the TGI (HOP-92 NSCLC) was 74.4 µM, the TGI (HS 578T breast) was 75.9 µM and the TGI (HT29 colon) was greater than 100 µM. The TGI (IGROV1 ovarian) was greater than 100 µM, the TGI (K-562 leukemia) was greater than 100 µM and the TGI (KM12 colon) was greater than 100 µM. The TGI (LOX IMVI melanoma) was 38.2 µM, the TGI (M14 melanoma) was 84.4 µM and the TGI (MALME-3M melanoma) was 89.7 µM. It also gave a TGI (MCF7 breast) greater than 100 µM, a TGI (MDA-MB-231 breast) greater than 100 µM and a TGI (MDA-MB-435) greater than 100 µM. For the same compound, the TGI (MDA-N) was 45.5 µM, the TGI (MOLT-4 leukemia) was greater than 100 µM and the TGI (NCI-H23 lung) was greater than 100 µM. For the same compound, the TGI (NCI-H460 lung) was greater than 100 µM, the TGI (NCI-H522 lung) was 53 µM and the TGI (NCI/ADR-RES ovarian) was greater than 100 µM. For the same compound, the TGI (OVCAR-3 ovarian) was 77.4 µM, the TGI (OVCAR-4 ovarian) was greater than 100 µM and the TGI (OVCAR-5 ovarian) was greater than 100 µM. For the same compound, the TGI (OVCAR-8 ovarian) was 57 µM, the TGI (PC-3 prostate) was greater than 100 µM and the TGI (RPMI-8226 leukemia) was 98.7 µM. It also gave a TGI (RXF 393 renal) of 76.5 µM, a TGI (SF-268 CNS) of 58.6 µM and a TGI (SF-295 CNS) greater than 100 µM. For the same compound, the TGI (SF-539 CNS) was 88.5 µM, the TGI (SK-MEL-2 melanoma) was greater than 100 µM and the TGI (SK-MEL-28 melanoma) was greater than 100 µM. It also gave a TGI (SK-MEL-5 melanoma) greater than 100 µM, a TGI (SK-OV-3 ovarian) greater than 100 µM and a TGI (SN12C renal) of 48.9 µM. It also gave a TGI (SNB-19 CNS) greater than 100 µM, a TGI (SNB-75 CNS) greater than 100 µM and a TGI (SW-620 colon) of 41.6 µM. The TGI (T-47D breast) was greater than 100 µM, the TGI (TK-10 renal) was greater than 100 µM and the TGI (U251 CNS) was greater than 100 µM. The TGI (UACC-257 melanoma) was greater than 100 µM, the TGI (UACC-62 melanoma) was greater than 100 µM and the TGI (UO-31 renal) was greater than 100 µM.
